Values belong to the compound of their own block, whether it stands above or below them. Calls of active or inactive are those of the source. No cut-off for these calls is given here.
Molecular target: Nuclear receptor subfamily 5 group A member 2 (Homo sapiens) (UniProt O00482)
Assay: Agonist activity at recombinant full length human LRH1 expressed in HeLa cells up to 30 uM after 24 hrs by dual-glo luciferase reporter gene assay
Assay type: cell-based

Sequence of Nuclear receptor subfamily 5 group A member 2 (Homo sapiens) (O00482 whole entry): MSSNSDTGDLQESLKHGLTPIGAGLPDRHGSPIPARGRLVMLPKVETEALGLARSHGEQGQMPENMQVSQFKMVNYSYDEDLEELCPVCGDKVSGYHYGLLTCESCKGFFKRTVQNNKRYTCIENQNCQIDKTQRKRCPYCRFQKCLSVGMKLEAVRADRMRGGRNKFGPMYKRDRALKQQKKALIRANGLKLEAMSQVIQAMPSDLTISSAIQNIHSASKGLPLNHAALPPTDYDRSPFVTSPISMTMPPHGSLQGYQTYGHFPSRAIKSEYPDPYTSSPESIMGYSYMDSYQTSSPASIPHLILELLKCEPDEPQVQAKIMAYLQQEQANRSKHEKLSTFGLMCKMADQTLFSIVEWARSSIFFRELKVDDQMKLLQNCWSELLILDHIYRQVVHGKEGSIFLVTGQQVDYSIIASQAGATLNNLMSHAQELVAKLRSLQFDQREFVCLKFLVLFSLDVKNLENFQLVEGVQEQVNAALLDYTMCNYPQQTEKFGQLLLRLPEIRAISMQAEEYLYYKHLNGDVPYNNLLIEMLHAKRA

Activity: inactive
Structure (SMILES): C=C(c1ccccc1)[C@@]12CC[C@@H](O)[C@@H]1CC(CCCCCCCCOP(=O)([O-])OCC[N+](C)(C)C)=C2c1ccccc1

Activity: inactive
Structure (SMILES): C=C(c1ccccc1)[C@@]12CC[C@@H](O)[C@@H]1CC(CCCCCCCOP(=O)([O-])OCC[N+](C)(C)C)=C2c1ccccc1

The remaining lines, values behind:

Structure (SMILES): C=C(c1ccccc1)[C@@]12CC[C@@H](O)[C@@H]1CC(CCCCCCC(=O)O)=C2c1ccccc1 (relative stereo)
Activity: inactive

Structure (SMILES): C=C(c1ccccc1)[C@@]12CC[C@@H](O)[C@@H]1CC(CCCCCCOP(=O)([O-])OCC[N+](C)(C)C)=C2c1ccccc1
Activity: inactive

Structure (SMILES): C=C(c1ccccc1)[C@@]12CC[C@@H](O)[C@@H]1CC(CCCCCC(=O)O)=C2c1ccccc1 (relative stereo)
Activity: inactive

Structure (SMILES): C=C(c1ccccc1)[C@@]12CC[C@@H](O)[C@@H]1CC(CCCC(=O)O)=C2c1ccccc1 (relative stereo)
Activity: inactive

Structure (SMILES): C=C(c1ccccc1)[C@@]12CC[C@@H](O)[C@@H]1CC(CCCCC(=O)O)=C2c1ccccc1
Activity: inactive
